The values that follow come from patent US10857136B2, “Compounds for use in the prevention and/or treatment of non-alcoholic fat liver disease and non-alcoholic steatohepatitis” (SJT MOLECULAR RESEARCH, SL, priority 2017, dated 2020).

Type in all cases: in vivo
Test [1] has as its system DIO mice (C57Bl/6J male mice). Nature of the test: Liver weight, 36 days assay in DIO mice. As to conditions: 50 mg/kg orally twice daily, after 36 days, vs saline control and metformin 150 mg/kg. On the procedure:
To assess the performance of the compounds disclosed decreasing liver overweight, DIO mice (C57Bl/6J male mice) were treated with compounds 4a and 5a during 36 days, versus a control of DIO mice treated with vehicle (0.9% NaCl) and DIO mice treated with Metformin as a positive control.
(§1) For the assessment, 60 C57Bl/6J male mice (16-week-old at delivery and 40 g of average weight), obtained from Charles River France, were put on high fat diet for 10 weeks. The animals were housed in ventilated and enriched housing cages (310×125×127 mm^3) throughout the experimental phase. Animals' cages litters were changed at least once a week. Mice were housed in groups of 10 mice on a normal 12 hours light cycle (at 08:00 pm lights were switched off), at 22±2° C. and 50±10% relative humidity. After reception, mice were maintained for three additional acclimation weeks. During the whole test (acclimation+treatment phase) a high fat diet (D12492; purchased from Research Diet Inc 60% fat) and tap water were provided ad libitum.
After the acclimation period, mice were fasted for 6 hours and blood glucose and plasma insulin were measured. Ten animals, those with lower blood glucose/plasma insulin, were discarded from the study. Then, the others were randomized into 5 homogenous groups (n=10 mice per group) according to their blood glucose/plasma insulin levels (HOMA-IR) and body weight. […]

The subject of test [2] is DIO mice (C57Bl/6J male mice). Description: Insulin resistance (HOMA-IR), 36 days assay in DIO mice. As to conditions: 50 mg/kg orally twice daily for 36 days, days 1, 8, 15, 22, 29 and 36, vs saline control, similar to metformin 150 mg/kg. The method, then:
To assess the performance of the compounds disclosed in decreasing insulin resistance, DIO mice (C57Bl/6J male mice) were treated with hydrochloride salts of compounds 4a, 5a; and with compound 7a during 36 days, versus a control treated with saline (0.9% NaCl) and versus DIO mice treated with metformin as a positive control.
as §1, with “C57Bl/6 J” for “C57Bl/6J”, “France” for “France, were”, “(D12492” for “(D12492;”, “Inc.;” for “Inc”
After the acclimation period, mice were fasted for 6 hours and blood glucose and plasma insulin were measured. Ten animals, those with lower blood glucose/plasma insulin, were discarded from the study. […]
Body weight were weekly measured as well as blood glucose and plasma insulin after a 6 hour-fasting.
Blood glucose was measured by sampling blood from the tip of the tail: a drop of blood is collected and placed on a glucometer strip (Accu-Check® glucometer, Roche, Switzerland). Plasma insulin was detected via ELISA (Elisa Kit, Eurobio, France) using 5 μl samples.
The Homeostatic model assessment-insulin resistance index (HOMA-IR), which is used to quantify insulin resistance, was calculated from fasting blood glucose, and plasma insulin values as follows: HOMA-IR=(mM glucose×μU/mL insulin)/22.5, being this constant a normalizing factor (Matthews et al., 1985, Diabetologia 28(7), 412-9).

Test [3] has as its system DIO mice (C57Bl/6 J male mice). Description: Liver lipid content, 36 days assay in DIO mice (colorimetric kits). As to conditions: 50 mg/kg orally twice daily, after 36 days, vs saline control. The method, then: To assess the performance of the compounds disclosed in decreasing hepatic lipid content, DIO mice (C57Bl/6 J male mice) were treated with a hydrochloride salt of compound 4a; and with compound 7a during 36 days, versus a control of DIO mice treated with saline (0.9% NaCl) and versus DIO mice treated with Metformin as a positive control.
as §1, with “C57Bl/6 J” for “C57Bl/6J”, “assessment” for “test”, “(D12492” for “(D12492;”, “Inc;” for “Inc”
After the acclimation period, mice were fasted for 6 hours and blood glucose and plasma insulin were measured. Ten animals, those with lower blood glucose/plasma insulin, were discarded from the study. Then, the others were randomized into 5 homogenous groups (n=10 mice per group) according to their blood glucose/plasma insulin levels (HOMA-IR) and body weight. Mice were treated orally twice daily for 36 days with either saline solution (control group), SJT test compound (4a, 7a; 50 mg/kg) or metformin (150 mg/kg).
Finally, mice were sacrificed, and liver was collected, weighted and stored at −80° C. for additional analysis. Liver samples were dissected for liver lipids assay. Liver lipids were assayed using colorimetric commercial assay kits, from liver samples homogenate after lipid solubilization in deoxycholate as described by Miao et al., J Lipid Res, 2004, 45, 1410-17. Samples were homogenized with an ultrasound probe with 500 μl distilled water during few seconds. Then cholic acid at 1% is added to make lipids soluble. The measurement of the different lipids was then performed using colorimetric kits from Sobioda, France.

The structures appear in SMILES notation.

With `COc1ccc(-c2nc(C(=O)NCCCN)cc3c2[nH]c2ccccc23)cc1` [Compound 5a, N(-propylamine)-1-benzosubstituted-β-carboline-3-carboxamide], the “liver weight (liver overweight)” value in test [1] was “lower liver weight than either mice treated with metformin or than the control animals”. For the same molecule, the “insulin resistance (HOMA-IR)” value in test [2] is on record as “lower insulin resistance compared to the control animals”.
As to `COc1ccc(-c2nc(C(=O)N/N=C/c3ccccc3)cc3c2[nH]c2ccccc23)cc1` [Compound 7a, 3-(carbohydrazyl-N′-phenylsubstitute)-1-benzosubstitute-β-carbolinic-3-carbohydrazide], in test [3], the hepatic cholesterol result is “lower lipid levels than untreated control animals”, the hepatic fatty acids result is on record as “lower lipid levels than untreated control animals” and the hepatic triglycerides entry is reported as “lower lipid levels than untreated control animals”. Further, the “insulin resistance (HOMA-IR)” value in test [2] is “lower insulin resistance compared to the control animals”.
